Reference: patent US12522607B2, “Substituted pyrazolo[3,4-d]pyrimidines as wee-1 inhibitors” (WIGEN BIOMEDICINE TECHNOLOGY (SHANGHAI) CO., LTD., priority 2020, dated 2026)

Experiments:
HT29 cells = assay: Antiproliferative activity against HT29 cells (Cell Titer-Lumi, ATP content); type: cell-based; conditions: Homo sapiens, HT-29, 72 after compound addition, read-out: HT-29 cells Anti-proliferative activity (IC50 for the inhibition against HT-29 cell growth)
Procedure: Example 343. Assay for Antiproliferative Activity Against HT29 Cells
3000 HT29 cells were seed in a 384-well plate (Fisher 142762). After the cells adhered to the wall overnight, the compounds diluted in a gradient were added. 72 later, Cell Titer-Lumi (Beyotime C0068XL) was added to determine the content of ATP in the cells. The growth of the cells was evaluated, and the IC50 for the inhibition of the compounds against cell growth was calculated.

Wee-1 kinase = biological target: T1, Wee-1 kinase (Homo sapiens, UniProt P30291); assay: Inhibitory activity against Wee-1 kinase (Lanthra Screen Wee-1 kinase kit, Tracer 178); type: binding; conditions: Wee-1 kinase 5 nM, Tracer 178 50 nM, 1 h room temperature
T1 construct: purchased Invitrogen
Procedure: Example 342. Assay for Inhibitory Activity of Compounds Against Wee-1 Kinase
The inhibitory activity of compounds against Wee-1 kinase was determined by using the Lanthra Screen Wee-1 kinase kit (Invitrogen). 5 μL of the compound diluted in a gradient with DMSO, 5 μL. of Wee-1 kinase (at a final concentration of 5 nM), 5 μL of an Eu-Anti-GST antibody (at a final concentration of 2 nM) mixture and 5 μL of kinase Tracer 178 (at a final concentration of 50 nM) were mixed well. The plate was read after incubation at room temperature for one hour. For comparison with the DMSO solvent control group, IC50 for the inhibition activity of the compounds against Wee-1 kinase was calculated.

T1 sequence (P30291 whole entry): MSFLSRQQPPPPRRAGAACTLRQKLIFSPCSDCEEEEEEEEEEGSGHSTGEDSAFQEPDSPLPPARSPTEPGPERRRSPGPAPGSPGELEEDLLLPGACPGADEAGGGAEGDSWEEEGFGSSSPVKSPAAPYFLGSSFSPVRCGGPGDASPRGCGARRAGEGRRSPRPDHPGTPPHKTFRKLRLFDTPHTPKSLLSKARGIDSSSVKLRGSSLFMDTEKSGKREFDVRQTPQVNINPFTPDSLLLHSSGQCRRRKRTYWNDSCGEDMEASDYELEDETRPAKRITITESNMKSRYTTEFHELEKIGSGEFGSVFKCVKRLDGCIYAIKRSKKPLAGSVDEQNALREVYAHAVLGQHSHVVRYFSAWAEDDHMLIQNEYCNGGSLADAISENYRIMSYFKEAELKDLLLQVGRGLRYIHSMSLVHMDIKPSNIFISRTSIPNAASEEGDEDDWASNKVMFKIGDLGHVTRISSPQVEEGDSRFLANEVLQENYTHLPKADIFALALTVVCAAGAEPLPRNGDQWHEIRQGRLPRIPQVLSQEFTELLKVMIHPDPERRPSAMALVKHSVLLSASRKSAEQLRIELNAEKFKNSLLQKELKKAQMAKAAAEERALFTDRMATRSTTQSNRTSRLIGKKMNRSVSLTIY

Compound | IC50 (HT29 cells) | IC50 (Wee-1 kinase)
C=CCn1c(=O)c2cnc(Nc3ccc(N4CC[C@@H](N(C)C)C4)c(OC)c3)nc2n1-c1ccc(=O)n(C(C)C)n1 [Compound 97] | ≤ 1 µM | ≤ 0.03 µM
C=CCn1c(=O)c2cnc(Nc3ccc(N4CCC(N(C)C)CC4)cc3)nc2n1-c1ccc(=O)n(C(C)C)n1 [Compound 98] | ≤ 1 µM | ≤ 0.03 µM
C=CCn1c(=O)c2cnc(Nc3ccc(N4CCC(N(C)C)CC4)c(C)c3)nc2n1-c1ccc(=O)n(C(C)C)n1 [Compound 99] | ≤ 1 µM | ≤ 0.03 µM
C=CCn1c(=O)c2cnc(Nc3ccc(N4CCC(N(C)C)CC4)c(OC)c3)nc2n1-c1ccc(=O)n(C(C)C)n1 [Compound 100] | ≤ 1 µM | ≤ 0.03 µM
C=CCn1c(=O)c2cnc(Nc3ccc(N4CCC(N)CC4)cc3)nc2n1-c1ccc(=O)n(C(C)C)n1 [Compound 101] | 1 to 3 µM | ≤ 0.03 µM
C=CCn1c(=O)c2cnc(Nc3ccc(N4CCC(N)CC4)c(C)c3)nc2n1-c1ccc(=O)n(C(C)C)n1 [Compound 102] | ≤ 1 µM | ≤ 0.03 µM
C=CCn1c(=O)c2cnc(Nc3ccc(N4CCC(N)CC4)c(OC)c3)nc2n1-c1ccc(=O)n(C(C)C)n1 [Compound 103] | ≤ 1 µM | ≤ 0.03 µM
C=CCn1c(=O)c2cnc(Nc3ccc(N4CCC(NC)CC4)cc3)nc2n1-c1ccc(=O)n(C(C)C)n1 [Compound 104] | ≤ 1 µM | ≤ 0.03 µM
C=CCn1c(=O)c2cnc(Nc3ccc(N4CCC(NC)CC4)c(C)c3)nc2n1-c1ccc(=O)n(C(C)C)n1 [Compound 105] | ≤ 1 µM | ≤ 0.03 µM
C=CCn1c(=O)c2cnc(Nc3ccc(N4CCC(NC)CC4)c(OC)c3)nc2n1-c1ccc(=O)n(C(C)C)n1 [Compound 106] | ≤ 1 µM | ≤ 0.03 µM
C=CCn1c(=O)c2cnc(Nc3ccc(N4CCC(C)(N)CC4)cc3)nc2n1-c1ccc(=O)n(C(C)C)n1 [Compound 107] | ≤ 1 µM | ≤ 0.03 µM
C=CCn1c(=O)c2cnc(Nc3ccc(N4CCC(C)(N)CC4)c(C)c3)nc2n1-c1ccc(=O)n(C(C)C)n1 [Compound 108] | ≤ 1 µM | ≤ 0.03 µM
C=CCn1c(=O)c2cnc(Nc3ccc(N4CCC(C)(N)CC4)c(OC)c3)nc2n1-c1ccc(=O)n(C(C)C)n1 [Compound 109] | ≤ 1 µM | ≤ 0.03 µM
C=CCn1c(=O)c2cnc(Nc3ccc(N4CCC(C)(NC)CC4)cc3)nc2n1-c1ccc(=O)n(C(C)C)n1 [Compound 110] | ≤ 1 µM | ≤ 0.03 µM
C=CCn1c(=O)c2cnc(Nc3ccc(N4CCC(C)(NC)CC4)c(C)c3)nc2n1-c1ccc(=O)n(C(C)C)n1 [Compound 111] | ≤ 1 µM | ≤ 0.03 µM
C=CCn1c(=O)c2cnc(Nc3ccc(N4CCC(C)(NC)CC4)c(OC)c3)nc2n1-c1ccc(=O)n(C(C)C)n1 [Compound 112] | ≤ 1 µM | ≤ 0.03 µM
C=CCn1c(=O)c2cnc(Nc3ccc(N4CCC(C)(N(C)C)CC4)cc3)nc2n1-c1ccc(=O)n(C(C)C)n1 [Compound 113] | ≤ 1 µM | ≤ 0.03 µM
C=CCn1c(=O)c2cnc(Nc3ccc(N4CCC(C)(N(C)C)CC4)c(C)c3)nc2n1-c1ccc(=O)n(C(C)C)n1 [Compound 114] | ≤ 1 µM | ≤ 0.03 µM
C=CCn1c(=O)c2cnc(Nc3ccc(N4CCC(C)(N(C)C)CC4)c(OC)c3)nc2n1-c1ccc(=O)n(C(C)C)n1 [Compound 115] | ≤ 1 µM | ≤ 0.03 µM
C=CCn1c(=O)c2cnc(Nc3ccc(N4C[C@@H](C)N[C@@H](C)C4)cc3)nc2n1-c1ccc(=O)n(C(C)C)n1 [Compound 116] | ≤ 1 µM | ≤ 0.03 µM
C=CCn1c(=O)c2cnc(Nc3ccc(N4C[C@@H](C)N(C)[C@@H](C)C4)cc3)nc2n1-c1ccc(=O)n(C(C)C)n1 [Compound 117] | ≤ 1 µM | ≤ 0.03 µM
C=CCn1c(=O)c2cnc(Nc3ccc(N4C[C@@H](C)N[C@@H](C)C4)c(C)c3)nc2n1-c1ccc(=O)n(C(C)C)n1 [Compound 118] | ≤ 1 µM | ≤ 0.03 µM
C=CCn1c(=O)c2cnc(Nc3ccc(N4C[C@@H](C)N(C)[C@@H](C)C4)c(C)c3)nc2n1-c1ccc(=O)n(C(C)C)n1 [Compound 119] | ≤ 1 µM | ≤ 0.03 µM
C=CCn1c(=O)c2cnc(Nc3ccc(N4C[C@@H](C)N[C@@H](C)C4)c(Cl)c3)nc2n1-c1ccc(=O)n(C(C)C)n1 [Compound 120] | ≤ 1 µM | ≤ 0.03 µM
C=CCn1c(=O)c2cnc(Nc3ccc(N4C[C@@H](C)N(C)[C@@H](C)C4)c(Cl)c3)nc2n1-c1ccc(=O)n(C(C)C)n1 [Compound 121] | ≤ 1 µM | ≤ 0.03 µM

Compound | IC50 (HT29 cells) | IC50 (Wee-1 kinase)
C=CCn1c(=O)c2cnc(Nc3ccc(N4C[C@@H](C)N[C@@H](C)C4)c(C(F)(F)F)c3)nc2n1-c1ccc(=O)n(C(C)C)n1 [Compound 122] | ≤ 1 µM | ≤ 0.03 µM
C=CCn1c(=O)c2cnc(Nc3ccc(N4C[C@@H](C)N(C)[C@@H](C)C4)c(C(F)(F)F)c3)nc2n1-c1ccc(=O)n(C(C)C)n1 [Compound 123] | ≤ 1 µM | ≤ 0.03 µM
C=CCn1c(=O)c2cnc(Nc3ccc(N4C[C@H](C)NC[C@H]4C)cc3)nc2n1-c1ccc(=O)n(C(C)C)n1 [Compound 124] | ≤ 1 µM | ≤ 0.03 µM
C=CCn1c(=O)c2cnc(Nc3ccc(N4C[C@H](C)N(C)C[C@H]4C)cc3)nc2n1-c1ccc(=O)n(C(C)C)n1 [Compound 125] | ≤ 1 µM | ≤ 0.03 µM
C=CCn1c(=O)c2cnc(Nc3ccc(N4C[C@H](C)NC[C@H]4C)c(C)c3)nc2n1-c1ccc(=O)n(C(C)C)n1 [Compound 126] | ≤ 1 µM | ≤ 0.03 µM
C=CCn1c(=O)c2cnc(Nc3ccc(N4C[C@H](C)N(C)C[C@H]4C)c(C)c3)nc2n1-c1ccc(=O)n(C(C)C)n1 [Compound 127] | ≤ 1 µM | ≤ 0.03 µM
C=CCn1c(=O)c2cnc(Nc3ccc(N4CCN[C@@H](C)C4)cc3)nc2n1-c1ccc(=O)n(C(C)C)n1 [Compound 128] | ≤ 1 µM | ≤ 0.03 µM
C=CCn1c(=O)c2cnc(Nc3ccc(N4CCN(C)[C@@H](C)C4)cc3)nc2n1-c1ccc(=O)n(C(C)C)n1 [Compound 129] | ≤ 1 µM | ≤ 0.03 µM
C=CCn1c(=O)c2cnc(Nc3ccc(N4CCN[C@@H](C)C4)c(C)c3)nc2n1-c1ccc(=O)n(C(C)C)n1 [Compound 130] | ≤ 1 µM | ≤ 0.03 µM
C=CCn1c(=O)c2cnc(Nc3ccc(N4CCN[C@H](C)C4)cc3)nc2n1-c1ccc(=O)n(C(C)C)n1 [Compound 131] | ≤ 1 µM | ≤ 0.03 µM
C=CCn1c(=O)c2cnc(Nc3ccc(N4CCN(C)[C@H](C)C4)cc3)nc2n1-c1ccc(=O)n(C(C)C)n1 [Compound 132] | ≤ 1 µM | ≤ 0.03 µM
C=CCn1c(=O)c2cnc(Nc3ccc(N4CCN[C@H](C)C4)c(C)c3)nc2n1-c1ccc(=O)n(C(C)C)n1 [Compound 133] | ≤ 1 µM | ≤ 0.03 µM
C=CCn1c(=O)c2cnc(Nc3ccc(N4CCN(C)[C@H](C)C4)c(C)c3)nc2n1-c1ccc(=O)n(C(C)C)n1 [Compound 134] | ≤ 1 µM | ≤ 0.03 µM
C=CCn1c(=O)c2cnc(Nc3ccc(N4CC5CCC(C4)N5)cc3)nc2n1-c1ccc(=O)n(C(C)C)n1 [Compound 135] | 1 to 3 µM | 0.03 to 0.1 µM
C=CCn1c(=O)c2cnc(Nc3ccc(N4CC5CCC(C4)N5C)cc3)nc2n1-c1ccc(=O)n(C(C)C)n1 [Compound 136] | 1 to 3 µM | 0.03 to 0.1 µM
C=CCn1c(=O)c2cnc(Nc3ccc(N4CC5CCC(C4)N5)c(C)c3)nc2n1-c1ccc(=O)n(C(C)C)n1 [Compound 137] | 1 to 3 µM | ≤ 0.03 µM
C=CCn1c(=O)c2cnc(Nc3ccc(N4CC5CCC(C4)N5C)c(C)c3)nc2n1-c1ccc(=O)n(C(C)C)n1 [Compound 138] | 1 to 3 µM | ≤ 0.03 µM
C=CCn1c(=O)c2cnc(Nc3ccc(N4CCN(C5CCN(C)CC5)CC4)c(C)c3)nc2n1-c1ccc(=O)n(C(C)C)n1 [Compound 139] | ≤ 1 µM | ≤ 0.03 µM
C=CCn1c(=O)c2cnc(Nc3ccc(N4CCN(C5CCN(C)CC5)CC4)c(F)c3)nc2n1-c1ccc(=O)n(C(C)C)n1 [Compound 140] | ≤ 1 µM | ≤ 0.03 µM
C=CCn1c(=O)c2cnc(Nc3ccc(N4CCN(C5CCN(C)CC5)CC4)c(OC)c3)nc2n1-c1ccc(=O)n(C(C)C)n1 [Compound 141] | ≤ 1 µM | ≤ 0.03 µM
C=CCn1c(=O)c2cnc(Nc3ccc(N4CCC(N5CCN(C)CC5)CC4)cc3)nc2n1-c1ccc(=O)n(C(C)C)n1 [Compound 142] | ≤ 1 µM | ≤ 0.03 µM
C=CCn1c(=O)c2cnc(Nc3ccc(N4CCC(N5CCN(C)CC5)CC4)c(C)c3)nc2n1-c1ccc(=O)n(C(C)C)n1 [Compound 143] | ≤ 1 µM | ≤ 0.03 µM
C=CCn1c(=O)c2cnc(Nc3ccc(N4CCC(N5CCN(C)CC5)CC4)c(OC)c3)nc2n1-c1ccc(=O)n(C(C)C)n1 [Compound 144] | ≤ 1 µM | ≤ 0.03 µM
C=CCn1c(=O)c2cnc(Nc3ccc(N4CCC(N5CCCCC5)CC4)cc3)nc2n1-c1ccc(=O)n(C(C)C)n1 [Compound 145] | ≤ 1 µM | ≤ 0.03 µM
C=CCn1c(=O)c2cnc(Nc3ccc(N4CCC(N5CCCCC5)CC4)c(C)c3)nc2n1-c1ccc(=O)n(C(C)C)n1 [Compound 146] | ≤ 1 µM | ≤ 0.03 µM
